Measurements from patent publication US8389503B2, “Steroidal antitubercular compounds” (priority 2011, dated 2013).
Converted amounts (≈) assume the structure as drawn.

Columns and labels:
[1] = tested on: Mycobacterium tuberculosis H37Rv (ATCC 27294); experiment: Primary screen (dose response), Microplate Alamar Blue Assay (MABA), Level-I antituberculosis assay; assay type: cell-based; settings: M. tuberculosis H37Rv, BACTEC 12B medium, concentration reducing fluorescence 90% relative to controls
Procedure: Primary Screen (Dose Response): Determination of a 90% Inhibitory Concentration (IC90). The initial screen is conducted against Mycobacterium tuberculosis H37Rv (ATCC 27294) in BACTEC 12B medium using the Microplate Alamar Blue Assay (MABA). Compounds are tested in ten 2-fold dilutions, typically from 100 μg/mL to 0.19 μg/mL. The IC90 is defined as the concentration effecting a reduction in fluorescence of 90% relative to controls. This value is determined from the dose-response curve using a curve-fitting program. Any IC90 value of ≦10 μg/mL is considered “Active” for antitubercular activity.

SMILES: CCCCCCOC(=O)c1ccc(OC2CC[C@@]3(C)C(=CC[C@H]4[C@@H]5CC[C@H]([C@H](C)C=C[C@@H](CC)C(C)C)[C@@]5(C)CC[C@@H]43)C2)cc1 (some centres unmarked) [Compound I, n-hexyl-p-stigmasteryloxy-benzoate]
- IC90 (90% inhibitory concentration) [1]: 6.25 µg/mL (≈ 10.1 µM)
- CC50 (mammalian cell cytotoxicity) (VERO cells): 79.59 µg/mL (≈ 129 µM)
